Values quoted from earlier work as cited in patent US5919783A, “Indoline and azaindoline derivatives as 5-HT1D alpha receptor agonists” (Merck Sharp & Dohme Ltd., priority 1994, dated 1999).

What was measured:
[1] = therapeutic doses
[2] = system: human 5-HT1Dα and 5-HT1Dβ receptor subtypes; details: cf. WO-A-91/17174, Table 1

discrimination between human 5-HT1Dα and 5-HT1Dβ receptor subtypes (in words) [2]: barely discriminates
Structure (SMILES): CNS(=O)(=O)Cc1ccc2[nH]cc(CCN(C)C)c2c1 [sumatriptan]
adverse events in humans [1]: adverse cardiovascular events
